These are literature values, as cited in publication PMC8923172 (Antimicrobial Agents and Chemotherapy, 2022).

Each structure is given as a SMILES string.

The data set concerns LPS-induced ALI. The settings on record: 2 mg/kg; cited from earlier work.

As to `C[C@@H]1C[C@H]2[C@@H]3CCC4=CC(=O)C=C[C@]4(C)[C@@]3(F)[C@@H](O)C[C@]2(C)[C@@]1(O)C(=O)CO` [dexamethasone], the “decrease in IFN-γ in bronchoalveolar lavage fluid” value was about 43%, the “decrease in IL-6 in bronchoalveolar lavage fluid” value is “approximately 26%” and the “decrease in IP-10 (CXCL10) in bronchoalveolar lavage fluid” value is on record as about 50%.
